Reference: patent publication US20240050466A1, “CELLULAR HEALTH NUTRITIONAL PRODUCT” (GLAXOSMITHKLINE CONSUMER HEALTHCARE HOLDINGS (US) LLC, priority 2020, published 2024)

Tests used:
[1] = Summary of bioefficacy, plausibility and criticality of micronutrients in F2; conditions: grade Low/medium/High, key not given
From the text: Summary Table of Bioefficacy, Plausibility and Criticality of Micronutrients in F2

[2] = in vivo, cited from earlier work
gene expression = conditions: hesperidin intake in humans; cited from earlier work
[3] = cited from earlier work

| Molecule | Bioefficacy [1] | other results |
| --- | --- | --- |
| CC1=C[C@H](O)CC(C)(C)[C@H]1/C=C/C(C)=C/C=C/C(C)=C/C=C/C=C(C)/C=C/C=C(C)/C=C/C1=C(C)C[C@@H](O)CC1(C)C [Lutein, trans-lutein] | medium | – |
| CC(C)=CCC/C(C)=C/C=C/C(C)=C/C=C/C(C)=C/C=C/C=C(C)/C=C/C=C(C)/C=C/C=C(\C)CCC=C(C)C [Lycopene, lycopene] | High | – |
| C[Se]CC[C@H](N)C(=O)O [Selenium, selenomethionine] | medium | reference dose (RfD) or NOAEL for Se ([2]; human): 350 µg/day; reference dose (RfD) or NOAEL for Se per body weight [2]: 5 ug Se/(kg body per day) |
| COc1ccc([C@@H]2CC(=O)c3c(O)cc(O[C@@H]4O[C@H](CO[C@@H]5O[C@@H](C)[C@H](O)[C@@H](O)[C@H]5O)[C@@H](O)[C@H](O)[C@H]4O)cc3O2)cc1O [Hesperidin, hesperidin] | medium | number of genes whose expression is modulated (gene expression): about 1,819 genes |
| O=C1O[C@H]([C@@H](O)CO)C(O)=C1O [Vitamin C, ascorbic acid] | medium | – |
| Vitamin E | Low | – |
| NCCC(=O)N[C@@H](Cc1cnc[nH]1)C(=O)O [Carnosine, L-Carnosine] | Low | – |
| CC(=O)Oc1c(C)c(C)c2c(c1C)CCC(C)(CCC[C@H](C)CCC[C@H](C)CCCC(C)C)O2 (stereo partly drawn) [RRRDL-alpha-Tocopherol Acetate] | – | safe upper limit for adults [3]: 273 mg/day |
